Reference: ChEMBL document CHEMBL1123114, “Structure-activity relationships of arylimidazopyridine cardiotonics: discovery and inotropic activity of 2-[2-methoxy-4-(methylsulfinyl)phenyl]-1H-imidazo[4,5-c]pyridine” (1985)

Legend:
[1] = organism: Felis catus; assay: Response ratio = (percent increase to drug)/(percent increase to 10 E-6 M isoproterenol); assay type: functional
[2] = organism: Felis catus; assay: Response ratio = (percent increase to drug)/(percent increase to 10 E-4 M isoproterenol); assay type: functional
[3] = tested on: Canis familiaris; assay: Percent change in mean arterial blood pressure in anesthetized dog; assay type: functional, Canis lupus familiaris
[4] = organism: Felis catus; assay: Compound tested for contractility in isolated cat papillary muscle at 10 e-4 M.; assay type: functional
[5] = tested on: Canis familiaris; assay: Percent change in heart rate in anesthetized dog; assay type: functional, Canis lupus familiaris
[6] = tested on: Canis familiaris; assay: Compound tested for contractility in anesthetized dog when administered intravenously.; assay type: functional; conditions: Canis lupus familiaris, iv
[7] = organism: Felis catus; assay: Response ratio = (percent increase to drug)/(percent increase to 10 E-5 M isoproterenol); assay type: functional
[8] = organism: Felis catus; assay: Compound tested for contractility in isolated cat papillary muscle at 10 e-6 M.; assay type: functional
[9] = organism: Felis catus; assay: Compound tested for contractility in isolated cat papillary muscle at 10 e-5 M.; assay type: functional
[10] = tested on: Canis familiaris; assay: Percent change in heart rate in anesthetized dog; ED50 not obtained; assay type: functional, organism-based; conditions: Canis lupus familiaris
[11] = tested on: Canis familiaris; assay: Percent change in mean arterial blood pressure in anesthetized dog; ED50 not obtained; assay type: functional, organism-based; conditions: Canis lupus familiaris
[12] = tested on: Canis familiaris; assay: Compound tested for contractility in anesthetized dog when administered intravenously; ED50 not obtained; assay type: functional, organism-based; conditions: Canis lupus familiaris
[13] = tested on: Canis familiaris; assay: maximum percent increase in contractility in anesthetized dog when administered 4 mg/Kg intravenously; assay type: functional, Canis lupus familiaris

Row | Compound | Response ratio [1] | Response ratio [2] | Change [3] | Control [4] | Change [5] | ED50 [6] | Response ratio [7] | Control [8] | Control [9] | ED50 [10] | ED50 [11] | ED50 [12] | Increase [13]
1 | CCOc1cc([S+](C)[O-])ccc1-c1nc2cc[nH]cc-2n1 (stereo not drawn) | 0.18 | 2.25 | -4% | 262% | 14% | 0.1 mg/kg | 1.15 | 113% | 183% | – | – | – | –
2 | COc1cc(Cl)ccc1-c1nc2cc[nH]cc-2n1 | 0.32 | 0.9 | -21% | 165% | 14% | 0.23 mg/kg | 0.86 | 123% | 162% | – | – | – | –
3 | COc1ccc(-c2nc3cccnc3[nH]2)cc1 | – | 1.01 | – | 173% | – | – | 0.06 | – | 104% | ED50 not obtained | ED50 not obtained | ED50 not obtained | –
4 | COc1cc([N+](=O)[O-])ccc1-c1nc2cc[nH]cc-2n1 | 0.38 | 0.61 | -23% | 144% | 5% | 0.015 mg/kg | 0.58 | 127% | 142% | – | – | – | –
5 | COc1cc(Oc2ccccc2)ccc1-c1nc2cc[nH]cc-2n1 | – | 0.76 | – | 155% | – | – | 0.3 | – | 122% | – | – | – | <50%
6 | COc1cc([S+](C)[O-])ccc1-c1nc2cnccc2[nH]1 (stereo not drawn) [ISOMAZOLE] | – | 2.33 | -1% | 268% | 7% | 0.03 mg/kg | 1 | – | 172% | – | – | – | –
7 | COc1cc(C(F)(F)F)ccc1-c1nc2cc[nH]cc-2n1 | – | 0.49 | -12% | 135% | 10% | 0.009 mg/kg | 0.54 | – | 139% | – | – | – | –
8 | COc1cc([S+](C)[O-])ccc1-c1nc2c[nH]cnc-2n1 (stereo not drawn) | – | 0.58 | 14% | 142% | 8% | 0.6 mg/kg | 0.21 | – | 115% | – | – | – | –
9 | COc1cc(S(C)(=O)=O)ccc1-c1nc2ccncc2[nH]1 | – | 1.68 | -5% | 221% | 8% | 0.02 mg/kg | 1.05 | – | 176% | – | – | – | –
10 | CCCCOc1ccc(-c2nc3cc[nH]cc-3n2)cc1 | 0.19 | 2.61 | – | 288% | – | – | 0.19 | – | 114% | – | – | – | –
11 | Cc1cccc(-c2nc3cc[nH]cc-3n2)c1 | – | 1.32 | -20% | 195% | 17% | 1 mg/kg | 0.25 | – | 118% | – | – | – | –
12 | CN(C)c1ccc(-c2nc3cc[nH]cc-3n2)cc1 | – | 1.04 | – | 175% | – | – | -0.08 | – | 94% | – | – | – | <50%
13 | CS(=O)(=O)c1ccc(-c2nc3cc[nH]cc-3n2)cc1 | – | 0.51 | 2% | 137% | 10% | 7.5 mg/kg | 0.24 | – | 117% | – | – | – | –
14 | COc1ccc(-c2nc3c[nH]cnc-3n2)c(OC)c1 | – | 1.59 | -15% | 215% | 7% | 0.3 mg/kg | 0.24 | – | 117% | – | – | – | –
